{"source": "ChEMBL document CHEMBL4477195", "about": "“Bridged Epipolythiodiketopiperazines from Penicillium raciborskii, an Endophytic Fungus of Rhododendron tomentosum Harmaja” (2016)", "key": {"Fusarium oxysporum [1]": {"test_system": "Fusarium oxysporum", "experiment": "Antifungal activity against Fusarium oxysporum assessed as fungal growth inhibition at 0.38 mM incubated in dark for 48 hrs by microspectrophotometric analysis", "format": "functional, organism-based"}, "Botrytis cinerea [2]": {"test_system": "Botrytis cinerea", "experiment": "Antifungal activity against Botrytis cinerea assessed as fungal growth inhibition at 0.38 mM incubated in dark for 48 hrs by microspectrophotometric analysis", "format": "functional, organism-based"}, "Verticillium dahliae [3]": {"test_system": "Verticillium dahliae", "experiment": "Antifungal activity against Verticillium dahliae assessed as fungal growth inhibition at 0.38 mM incubated in dark for 48 hrs by microspectrophotometric analysis", "format": "functional, organism-based"}, "Verticillium dahliae [4]": {"test_system": "Verticillium dahliae", "experiment": "Antifungal activity against Verticillium dahliae assessed as fungal growth inhibition at 10 to 400 ug/mL incubated in dark for 48 hrs by microspectrophotometric analysis", "format": "functional"}, "Verticillium dahliae [5]": {"test_system": "Verticillium dahliae", "experiment": "Antifungal activity against Verticillium dahliae assessed as fungal growth inhibition at 0.76 mM incubated in dark for 48 hrs by microspectrophotometric analysis", "format": "functional, organism-based"}, "Fusarium oxysporum [6]": {"test_system": "Fusarium oxysporum", "experiment": "Antifungal activity against Fusarium oxysporum assessed as fungal growth inhibition at 0.76 mM incubated in dark for 48 hrs by microspectrophotometric analysis", "format": "functional, organism-based"}, "Botrytis cinerea [7]": {"test_system": "Botrytis cinerea", "experiment": "Antifungal activity against Botrytis cinerea assessed as fungal growth inhibition at 10 to 400 ug/mL incubated in dark for 48 hrs by microspectrophotometric analysis", "format": "functional"}, "Botrytis cinerea [8]": {"test_system": "Botrytis cinerea", "experiment": "Antifungal activity against Botrytis cinerea assessed as fungal growth inhibition at 0.76 mM incubated in dark for 48 hrs by microspectrophotometric analysis", "format": "functional, organism-based"}}, "note": "Activity calls are given as the source filed them. The rule behind the calls is not given here.", "data": [{"smiles": "COc1ccc(C2SSS[C@@]34C[C@]5(O)[C@H](O)C=C[C@@H](O)[C@@H]5ON3C(=O)[C@@H]2N(C)C4=O)c(O)c1OC", "note": "(stereo partly drawn)", "values": [{"measurement": "growth inhibition (GI)", "setting": "Fusarium oxysporum [1]", "value": "Active"}, {"measurement": "growth inhibition (GI)", "setting": "Botrytis cinerea [2]", "value": "Active"}, {"measurement": "growth inhibition (GI)", "setting": "Verticillium dahliae [3]", "value": "Active"}, {"measurement": "growth inhibition (GI)", "setting": "Verticillium dahliae [4]", "value": 45, "unit": "%"}, {"measurement": "growth inhibition (GI)", "setting": "Verticillium dahliae [5]", "value": "Active"}, {"measurement": "growth inhibition (GI)", "setting": "Fusarium oxysporum [6]", "value": "Active"}, {"measurement": "growth inhibition (GI)", "setting": "Botrytis cinerea [7]", "value": 57, "unit": "%"}, {"measurement": "growth inhibition (GI)", "setting": "Botrytis cinerea [8]", "value": "Active"}]}]}
